Results published in patent publication US20100130738A1 (priority 2007, published 2010).
pIC50: −log10 of the molar value.

What was measured:
[1] = target: T1, PDE3A catalytic domain (PDE3Acat) (Homo sapiens, UniProt Q14432); assay: Phosphodiesterase inhibitory activity, recombinant PDE3Acat, [3H]cAMP; assay type: biochemical; conditions: 30° C. 20 minutes, read-out: IC50 (μmol/L) PDE3
T1 construct: isolate the cDNA of a PDE3A catalytic domain; made in house; host or cells: Sf9 insect cells (baculovirus, Bac-to-Bac / Gateway)
T1 sequence (Q14432 674-1093 limits assumed): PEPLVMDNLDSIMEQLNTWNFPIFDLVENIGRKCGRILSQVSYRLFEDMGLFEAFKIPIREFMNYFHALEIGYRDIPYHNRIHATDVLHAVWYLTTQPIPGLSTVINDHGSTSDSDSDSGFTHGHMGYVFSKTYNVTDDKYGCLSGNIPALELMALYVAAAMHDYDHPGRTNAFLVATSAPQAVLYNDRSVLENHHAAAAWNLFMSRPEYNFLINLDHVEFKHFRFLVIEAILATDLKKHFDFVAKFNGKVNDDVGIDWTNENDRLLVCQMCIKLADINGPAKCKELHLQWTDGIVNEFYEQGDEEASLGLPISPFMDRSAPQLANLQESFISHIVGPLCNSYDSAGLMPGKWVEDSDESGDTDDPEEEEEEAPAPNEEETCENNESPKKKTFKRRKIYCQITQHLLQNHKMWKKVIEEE

PDE4Bcat = target: T2, PDE4Bcat (Homo sapiens, UniProt Q07343); assay: Phosphodiesterase inhibitory activity, recombinant PDE4Bcat, [3H]cAMP; assay type: biochemical; conditions: 30° C. 20 minutes, read-out: IC50 (μmol/L) PDE4
T2 construct: made in house; host or cells: Sf9 insect cells (baculovirus, Bac-to-Bac / Gateway)
T2 sequence (Q07343 330-659 limits assumed): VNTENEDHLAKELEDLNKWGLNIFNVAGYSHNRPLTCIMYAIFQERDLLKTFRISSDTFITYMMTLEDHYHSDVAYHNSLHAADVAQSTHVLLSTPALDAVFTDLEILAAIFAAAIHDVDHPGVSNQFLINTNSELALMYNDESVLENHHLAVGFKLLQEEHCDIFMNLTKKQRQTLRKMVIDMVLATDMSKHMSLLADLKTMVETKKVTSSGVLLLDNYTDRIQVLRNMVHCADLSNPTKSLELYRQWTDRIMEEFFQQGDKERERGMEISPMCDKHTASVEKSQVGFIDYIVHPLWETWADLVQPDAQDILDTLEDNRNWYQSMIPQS

[2] = test system: histamine-induced bronchoconstriction in guinea pigs; assay: Histamine-induced bronchoconstriction reaction in guinea pigs; assay type: in vivo, guinea pig; conditions: Cavia porcellus, iv, 0.5 min, compound 0.3 mg/kg i.v., measured 30 seconds after administration, histamine 12.5 μg/kg i.v., read-out: Inhibition rate (histamine-induced bronchoconstriction)
Procedure: Guinea pigs were anesthetized with pentobarbital (30 mg/kg, i.p.). A cannula for intravenous administration, a cannula for collecting blood and measuring blood pressure, and a tracheal cannula were inserted into the left external jugular vein, right internal carotid artery, and trachea, respectively. The guinea pigs were maintained on artificial respiration under conditions of 60 times/min and 10 mL/kg/stroke. The overflowing air from the side branch of the tracheal cannula was measured by a bronchospasm transducer (Ugo-Basile) and recorded on a computer via Power Lab (ADInstruments Japan). The guinea pigs were immobilized with gallamine (10 mg/kg, i.v.), and histamine (12.5 μg/kg, i.v.) was administered at 10-minute intervals. After the histamine-induced bronchoconstriction became stable, the compound (0.3 mg/kg, i.v.) was administered. The histamine-induced bronchoconstriction reaction was measured 30 seconds after the compound administration to examine the bronchoconstriction inhibitory activity of the compound. The bronchoconstriction was recorded as the airflow value, and the results were represented by the ratio of the maximum value of the histamine-induced airflow 30 seconds after administration to the maximum value of the airflow before administration. Also, the test compounds dissolved in DMSO were used. Further, the indications were as follows: inhibition rate≧90% (+++), 90%>inhibition rate≧80% (++), and 80%>inhibition rate≧60% (+).

Row | Compound | pIC50 [1] | pIC50 (PDE4Bcat) | inhibition in vivo at 0.3 mg/kg [2] [%]
1 | COc1ccc(C2=NN(CCCCOc3ccc(C4=NNC(=O)CC4C)cc3)C(=O)C2(C)C)c2ccc(C)nc12 (stereo not drawn) [Example 193, 5-(8-Methoxy-2-methylquinolin-5-yl)-2-[4-[4-(4-methyl-6-oxo-1,4,5,6-tetrahydropyridazin-3-yl)phenoxy]butyl]-4,4-dimethyl-4,4-dihydro-pyrazol-3-one] | 7.00 to 8.00 | 7.00 to 8.00 | ≥ 90
2 | COc1ccc(C2=NN(CCCCOc3ccc(C4=NNC(=O)CC4C)cc3)C(=O)C2(C)C)c2cccnc12 (stereo not drawn) [Example 212, 5-(8-Methoxyquinolin-5-yl)-2-[4-[4-(4-methyl-6-oxo-1,4,5,6-tetrahydropyridazin-3-yl)phenoxy]butyl]-4,4-dimethyl-2,4-dihydro-pyrazol-3-one] | > 8.00 | 7.00 to 8.00 | ≥ 90
3 | COc1ccc(C2=NN(CCCCOc3ccc(C4=NNC(=O)CC4C)c(F)c3F)C(=O)C2(C)C)n2cc(C(F)(F)F)nc12 (stereo not drawn) [Example 234, 2-[4-[2,3-Difluoro-4-(4-methyl-6-oxo-1,4,5,6-tetrahydropyridazin-3-yl)phenoxy]butyl]-5-(8-methoxy-2-trifluoromethylimidazo[1,2-a]pyridin-5-yl)-4,4-dimethyl-2,4-dihydro-pyrazol-3-one] | > 8.00 | > 8.00 | 80 to 90
4 | COc1ccc(C2=NN(CCCCOc3ccc(C4=NNC(=O)CC4C)c(F)c3F)C(=O)C2(C)C)c2ccc(C)nc12 (stereo not drawn) [Example 196, 2-[4-[2,3-Difluoro-4-(4-methyl-6-oxo-1,4,5,6-tetrahydropyridazin-3-yl)phenoxy]butyl]-5-(8-methoxy-2-methylquinolin-5-yl)-4,4-dimethyl-2,4-dihydro-pyrazol-3-one] | > 8.00 | 7.00 to 8.00 | ≥ 90
5 | COc1ccc(C2=NN(CCCCOc3ccc(C4=NNC(=O)C4(C)C)c(F)c3F)C(=O)C2(C)C)c2[nH]c(C(F)(F)F)nc12 [Example 220, 2-[4-[2,3-Difluoro-4-(4,4-dimethyl-5-oxo-4,5-dihydro-1H-pyrazol-3-yl)phenoxy]butyl]-5-(4-methoxy-2-trifluoromethyl-1H-benzo[d]imidazol-7-yl)-4,4-dimethyl-2,4-dihydro-pyrazol-3-one] | 7.00 to 8.00 | > 8.00 | ≥ 90
6 | COc1ccc(C2=NN(CCCCOc3ccc(C4=NNC(=O)CC4)c(F)c3F)C(=O)C2(C)C)c2[nH]c(C(F)(F)F)nc12 [Example 219, 2-[4-[2,3-Difluoro-4-(6-oxo-1,4,5,6-tetrahydropyridazin-3-yl)phenoxy]butyl]-5-(4-methoxy-2-trifluoromethyl-1H-benzo[d]imidazol-7-yl)-4,4-dimethyl-2,4-dihydro-pyrazol-3-one] | > 8.00 | > 8.00 | ≥ 90
7 | COc1ccc(C2=NN(CCCCOc3ccc(C4=NNC(=O)CC4)c(F)c3F)C(=O)C2(C)C)n2cc(C(F)(F)F)nc12 [Example 235, 2-[4-[2,3-Difluoro-4-(6-oxo-1,4,5,6-tetrahydropyridazin-3-yl)phenoxy]butyl]-5-(8-methoxy-2-trifluoromethylimidazo[1,2-a]pyridin-5-yl)-4,4-dimethyl-2,4-dihydro-pyrazol-3-one] | > 8.00 | > 8.00 | 80 to 90
8 | COc1ccc(C2=NN(CCCCOc3ccc(C4=NNC(=O)CC4)c(F)c3F)C(=O)C2(C)C)c2sc(C(F)(F)F)nc12 [Example 229, 2-[4-[2,3-Difluoro-4-(6-oxo-1,4,5,6-tetrahydropyridazin-3-yl)phenoxy]butyl]-5-(4-methoxy-2-trifluoromethylbenzo[d]thiazol-7-yl)-4,4-dimethyl-2,4-dihydro-pyrazol-3-one] | > 8.00 | > 8.00 | ≥ 90
9 | CCc1ccc2c(C3=NN(CCCCOc4ccc(C5=NNC(=O)CC5)cc4)C(=O)C3(C)C)ccc(OC)c2n1 [Example 200, 5-(2-Ethyl-8-methoxyquinolin-5-yl)-2-[4-[4-(6-oxo-1,4,5,6-tetrahydropyridazin-3-yl)phenoxy]butyl]-4,4-dimethyl-2,4-dihydro-pyrazol-3-one] | 6.00 to 7.00 | 7.00 to 8.00 | ≥ 90
10 | CCc1ccc2c(C3=NN(CCCOc4ccc(C5=NNC(=O)CC5C)c(F)c4F)C(=O)C3(C)C)ccc(OC)c2n1 (stereo not drawn) [Example 241, 5-(2-Ethyl-8-methoxyquinolin-5-yl)-2-[4-[2,3-difluoro-4-(4-methyl-6-oxo-1,4,5,6-tetrahydropyridazin-3-yl)phenoxy]propyl]-4,4-dimethyl-2,4-dihydro-pyrazol-3-one] | > 8.00 | 6.00 to 7.00 | ≥ 90
11 | CCc1ccc2c(C3=NN(CCCCOc4ccc(C5=NNC(=O)CC5C)cc4)C(=O)C3(C)C)ccc(OC)c2n1 (stereo not drawn) [Example 194, 5-(2-Ethyl-8-methoxyquinolin-5-yl)-2-[4-[4-(4-methyl-6-oxo-1,4,5,6-tetrahydropyridazin-3-yl)phenoxy]butyl]-4,4-dimethyl-2,4-dihydro-pyrazol-3-one] | 7.00 to 8.00 | 7.00 to 8.00 | ≥ 90
12 | CCc1ccc2c(C3=NN(CCCCOc4ccc(C5=NNC(=O)C5(C)C)c(F)c4F)C(=O)C3(C)C)ccc(OC)c2n1 [Example 203, 5-(2-Ethyl-8-methoxyquinolin-5-yl)-2-[4-[2,3-difluoro-4-(4,4-dimethyl-5-oxo-4,5-dihydro-1H-pyrazol-3-yl)phenoxy]butyl]-4,4-dimethyl-2,4-dihydro-pyrazol-3-one] | > 8.00 | 7.00 to 8.00 | ≥ 90
13 | CCc1ccc2c(C3=NN(CCCCOc4ccc(C5=NNC(=O)CC5)c(F)c4F)C(=O)C3(C)C)ccc(OC)c2n1 [Example 198, 5-(2-Ethyl-8-methoxyquinolin-5-yl)-2-[4-[2,3-difluoro-4-(6-oxo-1,4,5,6-tetrahydropyridazin-3-yl)phenoxy]butyl]-4,4-dimethyl-2,4-dihydro-pyrazol-3-one] | > 8.00 | 7.00 to 8.00 | ≥ 90
14 | CCc1ccc2c(C3=NN(CCCCOc4ccc(C5=NNC(=O)CC5)cc4OC)C(=O)C3(C)C)ccc(OC)c2n1 [Example 238] | 6.00 to 7.00 | 6.00 to 7.00 | 60 to 80
15 | COc1ccc(C2=NN(CCCCOc3ccc(C4=NNC(=O)C4(C)C)c(F)c3F)C(=O)C2(C)C)c2cccnc12 [Example 213, 2-[4-[2,3-Difluoro-4-(4,4-dimethyl-5-oxo-4,5-dihydro-1H-pyrazol-3-yl)phenoxy]butyl]-5-(8-methoxyquinolin-5-yl)-4,4-dimethyl-2,4-dihydro-pyrazol-3-one] | > 8.00 | 7.00 to 8.00 | ≥ 90
16 | COc1ccc(C2=NN(CCCCOc3ccc(C4=NNC(=O)CC4C)c(F)c3F)C(=O)C2(C)C)c2sc(C(F)(F)F)nc12 (stereo not drawn) [Example 228, 2-[4-[2,3-Difluoro-4-(4-methyl-6-oxo-1,4,5,6-tetrahydropyridazin-3-yl)phenoxy]butyl]-5-(4-methoxy-2-trifluoromethylbenzo[d]thiazol-7-yl)-4,4-dimethyl-2,4-dihydro-pyrazol-3-one] | > 8.00 | > 8.00 | 80 to 90
17 | COc1ccc(C2=NN(CCCCOc3ccc(C4=NNC(=O)CC4C)c(F)c3F)C(=O)C2(C)C)c2cccnc12 (stereo not drawn) [Example 214, 2-[4-[2,3-Difluoro-4-(4-methyl-6-oxo-1,4,5,6-tetrahydropyridazin-3-yl)phenoxy]butyl]-5-(8-methoxyquinolin-5-yl)-4,4-dimethyl-2,4-dihydro-pyrazol-3-one] | > 8.00 | 7.00 to 8.00 | ≥ 90
18 | CCc1ccc2c(C3=NN(CCCCOc4ccc(C5=NNC(=O)CC5)cc4F)C(=O)C3(C)C)ccc(OC)c2n1 [Example 199, 5-(2-Ethyl-8-methoxyquinolin-5-yl)-2-[4-[2-fluoro-4-(6-oxo-1,4,5,6-tetrahydropyridazin-3-yl)phenoxy]butyl]-4,4-dimethyl-2,4-dihydro-pyrazol-3-one] | 7.00 to 8.00 | > 8.00 | ≥ 90
19 | CCc1ccc2c(C3=NN(CCCCOc4ccc(C5=NNC(=O)C5(C)C)cc4F)C(=O)C3(C)C)ccc(OC)c2n1 [Example 202, 5-(2-Ethyl-8-methoxyquinolin-5-yl)-2-[4-[2-fluoro-4-(4,4-dimethyl-5-oxo-4,5-dihydro-1H-pyrazol-3-yl)phenoxy]butyl]-4,4-dimethyl-2,4-dihydro-pyrazol-3-one] | 7.00 to 8.00 | 7.00 to 8.00 | 60 to 80
20 | COc1ccc(C2=NN(CCCCOc3ccc(C4=NNC(=O)CC4C)cc3F)C(=O)C2(C)C)c2cccnc12 (stereo not drawn) [Example 215, 2-[4-[2-Fluoro-4-(4-methyl-6-oxo-1,4,5,6-tetrahydropyridazin-3-yl)phenoxy]butyl]-5-(8-methoxyquinolin-5-yl)-4,4-dimethyl-2,4-dihydro-pyrazol-3-one] | > 8.00 | 7.00 to 8.00 | ≥ 90
